Data: patent US20170058314A1, “NOVEL METHODOLOGY FOR IDENTIFYING ANTI-PERSISTER ACTIVITY AND ANTIMICROBIAL SUSCEPTIBILITY FOR BORRELIA BURGDORFERI AND OTHER BACTERIA” (priority 2014, published 2017)

What was measured:
[1] = test system: round body form of B. burgdorferi; settings: 50 µM
[2] = test system: round body form of B. burgdorferi; test: SYBR Green I/PI assay on amoxicillin-induced round body form; settings: for Ratios of green/red fluorescence, Primary screening / Ratios of green/red fluorescence, Rescreening (first column) / Ratios of green/red fluorescence, Rescreening (second column): round body form, 50 μM, 7 days
[3] = test system: B. burgdorferi (growing, strain B31); test: MIC determination, standard microdilution method; type: cell-based, Borrelia burgdorferi; settings: for MIC: Borreliella burgdorferi, growing B. burgdorferi, read-out: MIC
[4] = test system: stationary phase B. burgdorferi persisters (strain B31); test: epifluorescence microscope counting after SYBR Green I/PI staining, FDA drug screen
[5] = test system: stationary phase B. burgdorferi persisters (strain B31); test: SYBR Green I/PI viability assay (plate reader), FDA-approved drug library screen; settings: for Ratio of Green/Red fluorescence, Primary screening / Ratio of Green/Red fluorescence, Rescreening (first column) / Ratio of Green/Red fluorescence, Rescreening (second column): 7 days, stationary phase
[6] = test system: log phase E. coli culture; test: E. coli control, persister frequency by standard plate colony count assay; type: cell-based, Escherichia coli; settings: three hour log phase E. coli, 50 μg/mL amoxicillin for 3 hours
[7] = test system: B. burgdorferi log and stationary phase cultures; test: epi-fluorescence microscope counting after antibiotic exposure (persister frequency, planktonic forms); type: cell-based, Borrelia burgdorferi
Procedure: Specimens were examined on a Nikon Eclipse E800 microscope equipped with differential interference contrast (DIC) and epi-fluorescence illumination, and recorded with a Spot slider color camera. Cell proliferation assays were performed by direct counting using a bacterial counting chamber (Hausser Scientific Partnership) and DIC microscopy. SYBR Green I/PI assay was performed to assess the viability of B. burgdorferi. The ratio of live (green) and dead (red) B. burgdorferi was calculated by counting these cells using a bacterial counting chamber and epi-fluorescence microscopy. The three representative images of every sample were captured for quantitative analysis. Image Pro-Plus software was applied for measuring the biomass (fluorescence intensity) of different forms (spirochetes, round body, and microcolony) of B. burgdorferi as previously described (Shopov and Williams, 2000).
To qualitatively determine the effect of antibiotics, 10 μL of each compound from the pre-diluted plate or pre-diluted stock was added to stationary phase B. burgdorferi culture in the 96-well plate. The final volume per well was adjusted to 100 μL at a concentration of 10 μg/mL for each antibiotic. Plates were sealed and placed in a 33° C. incubator for 7 days. The SYBR Green I/PI viability assay was used to assess the live and dead cells after antibiotic exposure as described (Feng, Wang, Shi, et al., 2014). Briefly, 10 μL of SYBR Green I (10,000×stock, Invitrogen) was mixed with 30 μL propidium iodide (PI, 20 mM) into 1.0 mL of sterile dH2O. Then, 10 μL of staining mixture was added to each well and mixed thoroughly. The plates were incubated at room temperature in the dark for 15 minutes followed by plate reading at excitation wavelength at 485 nm and the fluorescence intensity at 535 nm (green emission) and 635 nm (red emission) in microplate reader (HTS 7000 plus Bio Assay Reader, PerkinElmer Inc., USA). With least-square fitting analysis, the regression equation and regression curve of the relationship between percentage of live bacteria and green/red fluorescence ratios was obtained. The regression equation was used to calculate the percentage of live cells in each well of the 96-well plate.
Therefore, the frequency of B. burgdorferi persisters in log phase and stationary phase cultures was assessed using the SYBR Green I/PI viability assay after exposure of the cultures to antimicrobials. E. coli culture was used as a control after exposure to antibiotics to validate the SYBR Green I/PI viability assay for persister frequency assessment.

[8] = test system: log phase and stationary phase B. burgdorferi culture; test: Antibiotic exposure assay, SYBR Green I/PI (drugs alone and combinations); settings: Borreliella burgdorferi, 168 h, read-out: Live Cell % (residual viable B. burgdorferi), ten-day-old stationary phase culture enriched with micro-colonies, 10 μg/mL each drug, 7 days
Outline: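 Stationary-phase or round-body B. burgdorferi exposed 7 days at 33 °C to drugs alone or combined at 10 μg/mL each (single-compound screen: 50 μM final). Viability by SYBR Green I/PI, ex 485, em 535/635 nm; percent live from regression of green/red ratio, corrected by direct microscopy counting.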

[9] = test system: stationary phase B. burgdorferi persisters (strain B31); test: NCI compound library rescreen, epifluorescence microscope counting; settings: Borreliella burgdorferi, 168 h
[10] = test system: stationary phase B. burgdorferi; test: Subculture test of drug-treated stationary phase B. burgdorferi; type: cell-based, Borrelia burgdorferi
Procedure: Seven-day-old B. burgdorferi culture (1×10^7 spirochetes/mL) (500 μL) was treated with drugs or drug combinations in Eppendorf tubes. After incubation at 33° C. for 7 days without shaking, the cells were collected by centrifugation and rinsed with 1 mL fresh BSK-H medium followed by resuspension in 500 μL fresh BSK-H medium without antibiotics. Then 50 μL of cell suspension was transferred to 1 mL fresh BSK-H medium for subculture at 33° C. for 2 weeks. Cell proliferation was assessed using SYBR Green I/PI assay and bacterial counting chamber (Hausser Scientific Partnership) by microscopy as described above.

[11] = test system: log phase E. coli culture; test: E. coli control, persister frequency by microscope counting after SYBR Green I/PI staining; type: cell-based, Escherichia coli; settings: three hour log phase E. coli, 50 μg/mL amoxicillin for 3 hours
[12] = test system: stationary phase B. burgdorferi persisters (strain B31); test: NCI compound library screen, SYBR Green I/PI assay (plate reader)
[13] = test system: S. aureus; settings: Zhu et al., 2005; cited from earlier work
[14] = test system: K. pneumoniae (Isolate 7); test: Rapid SYBR Green/PI antibiotic susceptibility test, 30 minutes; type: cell-based, Klebsiella pneumoniae; settings: 25 μg/mL
[15] = test system: E. coli strains (W3110, UTI89, CFT073, KTE181); test: Rapid SYBR Green/PI antibiotic susceptibility test; type: cell-based, Escherichia coli; settings: 30 minutes; ampicillin 100 μg/mL, others 25 μg/mL
[16] = 50 μM, 7-day old stationary phase cells treated for 7 days
[17] = read-out: Activity against persisters (residual viable cell percentage)
[18] = read-out: Residual viable cells (epifluorescence microscope counting)
[19] = 10 μg/mL, 7 days treatment, then subculture
[20] = Borreliella burgdorferi, 168 h, read-out: Residual viable cells (epifluorescence microscope counting)
[21] = Borreliella burgdorferi, 168 h, read-out: Residual viable cells (SYBR Green I/PI assay)

N[C@@H](C(=O)N[C@@H]1C(=O)N2C(C(=O)O)=C(Cl)CC[C@H]12)c1ccccc1 [Loracarbef]
Residual viable cells (SYBR Green I/PI assay) [1]: 33% | Ratios of green/red fluorescence, Primary screening [2]: 6.35 | Ratios of green/red fluorescence, Rescreening (first column) [2]: 6.25 | Ratios of green/red fluorescence, Rescreening (second column) [2]: 6.24

CO[C@@H]1[C@@H](O[C@@H]2O[C@H](C)[C@@H](O[C@H]3C[C@@](C)(O)[C@@H](OC(=O)CC(C)C)[C@H](C)O3)[C@H](N(C)C)[C@H]2O)[C@@H](CC=O)C[C@@H](C)C(=O)/C=C/[C@@H]2O[C@@H]2C[C@@H](C)OC(=O)C[C@H]1OC(C)=O [Carbomycin]
Residual viable cells (SYBR Green I/PI assay) [1]: 43% | sensitivity of log phase / multiplying B. burgdorferi (words, FIG. 12) ([3]; MIC test): very sensitive | Residual viable cells (epifluorescence microscope counting) [4, 16]: 41% | Residual viable cells (regression equation, SYBR Green I/PI assay) [5, 16]: 37% | Ratio of Green/Red fluorescence, Primary screening ([5]; 50 μM): 6.37 | Ratio of Green/Red fluorescence, Rescreening (first column) ([5]; 50 μM): 6.81 | Ratio of Green/Red fluorescence, Rescreening (second column) ([5]; 50 μM): 6.32

CC1(C)S[C@@H]2[C@H](NC(=O)[C@H](N)c3ccc(O)cc3)C(=O)N2[C@H]1C(=O)O [Amoxicillin]
E. coli control Persister frequency (standard plate colony count assay) [6]: 0.9% | E. coli control Persister frequency (standard plate colony count assay) ([6]; listed as amoxicillin): 0.9% | persister frequency (percentage of live cells after antibiotic treatment, in brackets) ([7]; 3-day log phase culture): (9.6%) | persister frequency (in brackets) ([7]; 7-day stationary phase culture): (25%) | persister frequency (in brackets) ([7]; 10-day stationary phase culture): (~27%) | viability at 10 µg/mL [8]: 75% | viability at 50 µM [9, 17]: 77% | viability at 20 µM ([9]; read-out: Residual viable cells (%) 20 μM (epifluorescence microscope counting)): 77% | viability at 50 µM ([9]; read-out: Residual viable cells (%) 50 μM (epifluorescence microscope counting)): 77% | viability at 50 µM [9, 18]: 77% | G/R ratio immediately after treatment ([10]; 10 μg/mL, 7 days): 7.16 | G/R ratio after 7 day subculture [10, 19]: 6.32 | G/R ratio after 15 day subculture [10, 19]: 7.23 | Spirochetes after 7 day subculture (microscope counting) [10, 19]: 1 × 10^6 | Spirochetes after 15 day subculture (microscope counting) [10, 19]: 6 × 10^6 | Spirochetes after 15 day subculture (microscope counting) ([10]; 10 μg/mL, 7 days treatment, then subculture, listed as amoxicillin): ~5×10^6 | viability at 10 µg/mL [10, 20]: 80% | MIC [3]: ≤ 0.25 mg/L | viability at 50 µM [2, 21]: 46% | Ratios of green/red fluorescence, Primary screening [2]: 6.53 | Ratios of green/red fluorescence, Rescreening (first column) [2]: 6.59 | Ratios of green/red fluorescence, Rescreening (second column) [2]: 6.52 | E. coli control Persister frequency (epi-fluorescence microscope counting after SYBR Green I/PI staining) [11]: 4.4% | E. coli control Persister frequency (epi-fluorescence microscope counting after SYBR Green I/PI staining) ([11]; listed as amoxicillin): 4.4% | viability at 50 µM [4, 20]: 76% | Ratio of Green/Red fluorescence, Primary screening ([5]; 50 μM): 7.98 | Ratio of Green/Red fluorescence, Rescreening (first column) ([5]; 50 μM): 7.86 | Ratio of Green/Red fluorescence, Rescreening (second column) ([5]; 50 μM): 7.82 | viability at 50 µM ([5]; Borreliella burgdorferi, 168 h, read-out: Residual viable cells (regression equation, SYBR Green I/PI assay)): 76% | Residual viable cells (SYBR Green I/PI assay) ([12]; 50 μM, seven day old stationary phase culture, 7 days): 71% | viability at 20 µM ([12]; Borreliella burgdorferi, 168 h, read-out: Residual viable cells (%) 20 μM (SYBR Green I/PI assay), 20 μM, seven day old stationary phase, 7 days): 77%

COc1cccc2c1C(=O)c1c(O)c3c(c(O)c1C2=O)C[C@@](O)(C(=O)CO)C[C@@H]3O[C@H]1C[C@H](N)[C@H](O)[C@H](C)O1 [doxorubicin]
MIC against S. aureus [13]: 0.12 to 0.5 mg/L | bactericidal activity by microscopic counting ([4]; FDA drug screen): no bactericidal activity | activity against stationary phase B. burgdorferi (words; SYBR Green I/PI assay) ([5]; FDA drug screen): very high activity

COc1cccc2c1C(=O)c1c(O)c3c(c(O)c1C2=O)C[C@@](O)(C(C)=O)C[C@@H]3OC1CC(N)C(O)C(C)O1.Cl (stereo partly shown) [NSC82151, Daunorubicin hydrochloride]
MIC against S. aureus [13]: 8 to 32 mg/L | viability at 50 µM [9, 17]: 10% | viability at 50 µM [9, 18]: 10% | MIC [3]: ≤ 0.35 mg/L | viability at 50 µM [12, 21]: 0%

CO/N=C(\C(=O)N[C@@H]1C(=O)N2C(C(=O)O)=C(COC(C)=O)CS[C@H]12)c1csc(N)n1 [cefotaxime]
killing of resistant K. pneumoniae strain [14]: not killed at all | percent killed, sensitive strain W3110 [15]: 24%
